Laboratory results published in PubChem BioAssay (NCI).
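Each compound was tested at five concentrations against cells in 96-well plates for 48 hours. GI50 marks 50% less growth. TGI denotes the concentration required for complete inhibition of growth.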

Key:
Experiment in all cases: NCI anticancer screen, dose series, 48 h
[1] = system: SNB-75 CNS
[2] = system: HS 578T breast
[3] = system: COLO 205 colon
[4] = system: SK-MEL-5 melanoma
[5] = system: HOP-92 NSCLC
[6] = system: SF-295 CNS
[7] = system: LOX IMVI melanoma
[8] = system: BT-549 breast
[9] = system: OVCAR-3 ovarian
[10] = system: HT29 colon

SMILES	TGI [1] [µM]	TGI [2] [µM]	TGI [3] [µM]	TGI [4] [µM]	TGI [5] [µM]	TGI [6] [µM]	TGI [7] [µM]	TGI [8] [µM]	TGI [9] [µM]	TGI [10] [µM]	GI50 [5] [µM]	GI50 [6] [µM]	GI50 [7] [µM]	GI50 [8] [µM]	GI50 [10] [µM]
O=C(/C=C/c1ccc(O)c(O)c1)OCCc1ccc2ccccc2c1	8.22	24.1	16.4	13.2	19.6	23.7	20.8	15.7	12.4	25.6					
CN1CSC(=S)N(c2cccc(C(F)(F)F)c2)C1	> 100	82.2	37.2	31.4	50.5	51.2	43.1	44.2	46.7	47.7					
COc1cc2nc(-c3ccc(Cl)cc3)cc(OCCCN3CCOCC3)c2cc1OC					5.17	2.84	0.593	> 100		> 100	1.36	1.08	0.217	2.59	0.61
CCCCI(O)OS(=O)(=O)c1ccc(C)cc1	> 100	> 100	> 100	> 100	> 100	> 100	30.8	> 100	> 100	> 100					
Cc1ccc2cccc(-c3cccc4ccccc34)c2n1	48.2	81.9	> 100	32.2	62.1	69.8	31.3	> 100	> 100	76.9					
O=[N+]([O-])c1ccc(C[P+]2(c3ccccc3)CCCCC2)cc1	> 100		> 100	> 100		> 100	> 100		> 100	> 100					
CN(CCN1CCCC1)C1CCc2cc(Cl)c(Cl)cc2C1 (configuration not stated)		56.2	17.2	24.8		29.1	29.7	28.5	32.1	22.8					
O=c1ccc2ccc(S)cc2o1	> 100	> 100	> 100	> 100	> 100	> 100	> 100	> 100	> 100	> 100					
COc1ccc(C2Oc3ccc(Cl)cc3C=C2[N+](=O)[O-])cc1 (configuration not stated)		> 100	> 100	> 100		> 100	> 100	> 100	> 100	> 100					
Cc1c(C)n(-c2ccccc2)c2nc(S(C)=O)nc(S(C)=O)c12 (configuration not stated)	23.3	70.5	3.41	6.1	4.62	32.2	4.15	4.13	6.77	25.1					
O=C(ON=C1c2ccccc2C(Br)C(Br)c2ccccc21)c1ccccc1 (configuration not stated)	> 65.9	53.6	36.7	31.7	5.27	36.4	9.12	35.7	28.7	38					
N#Cc1c(-c2ccc([N+](=O)[O-])cc2)cc(-c2ccc(Nc3ccnc4cc(Cl)ccc34)cc2)[nH]c1=O	> 100		> 100		> 100	> 100	> 100	> 100	> 100						
COc1cccc(C2c3cc4c(cc3OC(O)C2C)OCO4)c1OC (configuration not stated)	32.4	32.8	19.7	21.8	8.55	17.3	23.5	65.6	17.9	24.5					
O=C(O)c1nc2ccc(C(F)(F)F)cc2[nH]c1=O		> 100	> 100	> 100	> 100	> 100	> 100	> 100	> 100	> 100					
COCOc1ccc(C(=O)Oc2cccc3c2OC(C)(C)O3)c(OCOC)c1	> 100	86	> 100	> 100	> 100	> 100	> 100		> 100	> 100					
c1c[nH]c(-c2cccc3nsnc23)c1	> 100		> 100	> 100		> 100	> 100	> 100		> 100					
COc1ccc2c(c1)c1c(n2CCN2CCCCC2)-c2cccc(OC)c2CC1	46.1	42.4	39	45.5		> 100	38.7	41.6	34.5	17.6					
C[n+]1cc2cc(O)c(O)cc2c2ccc3cc(O)c(O)cc3c21	59.3		> 84.5	> 54.8	11.5	38.8	18.3	9.93	7.96	66.9					
COC(=O)CC(=O)OSc1ccccc1			38.2	87.9	67.9	96.3	26.9		36.4						
Cc1ccccc1-c1nc2c(N)nc(N)nc2nc1N	> 100	> 100	> 100	> 100		> 100	> 100	> 100	> 100	> 100					
CN(C)c1nc(Oc2nc(N(C)C)nc(N(C)C)n2)nc(N(C)C)n1	> 100		> 100	> 100	> 100	> 100	> 100		> 100	> 100					
O=c1c(F)cn2c(=O)n1CCCCCCCn1c(=O)c(F)cn(c1=O)CCCCCCC2	27		> 100	> 100	> 100	> 100	> 100		> 100	> 100					
NCCN1CCCCCc2ccccc21	> 10	> 10	> 10	> 10		> 10	> 10		> 10	> 10					
